Laboratory results as given in ChEMBL document CHEMBL1201862, “PubChem BioAssay data set” (2004).
Active and inactive are the calls of the source.

Columns and labels:
Protein skinhead-1 = target: T1, Protein skinhead-1 (Caenorhabditis elegans, UniProt P34707); format: functional
T1 sequence (P34707 whole entry): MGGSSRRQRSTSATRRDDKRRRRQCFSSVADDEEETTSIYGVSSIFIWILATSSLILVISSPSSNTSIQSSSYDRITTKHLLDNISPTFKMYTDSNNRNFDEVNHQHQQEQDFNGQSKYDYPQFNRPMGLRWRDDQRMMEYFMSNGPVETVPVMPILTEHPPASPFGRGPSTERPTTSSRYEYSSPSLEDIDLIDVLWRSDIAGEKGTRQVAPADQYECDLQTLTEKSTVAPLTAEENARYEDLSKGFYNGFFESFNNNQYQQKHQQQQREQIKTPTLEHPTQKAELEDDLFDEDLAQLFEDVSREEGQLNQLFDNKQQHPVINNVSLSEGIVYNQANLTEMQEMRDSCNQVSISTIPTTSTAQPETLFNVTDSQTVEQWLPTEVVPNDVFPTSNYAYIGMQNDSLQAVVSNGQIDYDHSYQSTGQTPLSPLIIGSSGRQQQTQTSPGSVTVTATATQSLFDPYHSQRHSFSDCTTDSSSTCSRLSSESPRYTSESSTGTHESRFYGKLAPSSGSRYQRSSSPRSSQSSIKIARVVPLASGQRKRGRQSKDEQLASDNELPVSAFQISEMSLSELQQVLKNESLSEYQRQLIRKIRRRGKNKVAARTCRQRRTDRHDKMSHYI

[1] = NIH-3T3 fibroblast cytotoxicity, dose response, cytotoxicity control, cell-based, fluorescence, Alamar Blue, secondary assay (AID 2327); format: functional;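 further: NIH-3T3 mouse fibroblasts cultured with fluconazole at 8 µg/mL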
[2] = fluconazole-exposed Candida albicans growth modulators – fluorescence, retest, confirmation (AID 2467); format: functional, cell-based
[3] = target: T2, Short transient receptor potential channel 4 (Mus musculus, UniProt Q9QUQ5); assay: block of DAMGO-driven TRPC4 calcium entry – cell-based, HEK293 TRPC4/mu-opioid, Fluo-4 calcium, dose response (AID 434942); format: functional;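 further: potency of inhibitors blocking the TRPC4 calcium response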
T2 sequence (Q9QUQ5 whole entry): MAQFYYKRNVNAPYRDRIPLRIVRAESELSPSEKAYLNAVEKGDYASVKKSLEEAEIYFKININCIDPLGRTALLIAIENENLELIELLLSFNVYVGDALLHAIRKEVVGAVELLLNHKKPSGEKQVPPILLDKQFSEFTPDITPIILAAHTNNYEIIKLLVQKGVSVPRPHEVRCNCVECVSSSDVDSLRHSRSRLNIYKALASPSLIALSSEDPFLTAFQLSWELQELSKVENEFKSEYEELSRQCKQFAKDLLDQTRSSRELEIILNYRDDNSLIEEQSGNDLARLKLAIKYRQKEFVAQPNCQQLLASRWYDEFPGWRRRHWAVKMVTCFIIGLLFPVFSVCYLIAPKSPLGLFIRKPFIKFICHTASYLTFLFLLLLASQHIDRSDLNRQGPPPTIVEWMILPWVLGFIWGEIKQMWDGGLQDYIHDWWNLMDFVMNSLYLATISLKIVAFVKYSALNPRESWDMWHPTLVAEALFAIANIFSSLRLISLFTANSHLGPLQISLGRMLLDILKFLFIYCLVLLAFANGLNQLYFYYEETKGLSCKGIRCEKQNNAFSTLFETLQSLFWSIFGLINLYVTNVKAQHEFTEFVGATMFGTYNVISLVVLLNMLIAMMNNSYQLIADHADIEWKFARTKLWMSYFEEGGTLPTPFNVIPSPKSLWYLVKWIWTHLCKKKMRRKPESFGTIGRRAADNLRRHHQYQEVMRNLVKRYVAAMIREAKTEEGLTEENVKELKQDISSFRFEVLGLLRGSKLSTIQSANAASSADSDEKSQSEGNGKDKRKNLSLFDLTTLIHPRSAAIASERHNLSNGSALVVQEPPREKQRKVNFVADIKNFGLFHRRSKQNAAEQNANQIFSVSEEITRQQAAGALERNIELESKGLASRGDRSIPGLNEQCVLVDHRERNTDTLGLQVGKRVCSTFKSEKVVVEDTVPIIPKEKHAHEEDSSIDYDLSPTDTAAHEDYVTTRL

[4] = target: T3, Heat shock factor protein 1 (Mus musculus, UniProt P38532); assay: enhancement of HSF1-driven luciferase signal – cell-based, NIH3T3, luminescence, dose retest, confirmation (AID 435004); format: functional;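 further: stress induced by proteasome inhibitor MG132 added 30 min after compound; luciferase reporter driven by HSF1 response element in NIH3T3 cells; actives raise luminescence as potentiators of the MG132 stress response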
T3 sequence (P38532 whole entry): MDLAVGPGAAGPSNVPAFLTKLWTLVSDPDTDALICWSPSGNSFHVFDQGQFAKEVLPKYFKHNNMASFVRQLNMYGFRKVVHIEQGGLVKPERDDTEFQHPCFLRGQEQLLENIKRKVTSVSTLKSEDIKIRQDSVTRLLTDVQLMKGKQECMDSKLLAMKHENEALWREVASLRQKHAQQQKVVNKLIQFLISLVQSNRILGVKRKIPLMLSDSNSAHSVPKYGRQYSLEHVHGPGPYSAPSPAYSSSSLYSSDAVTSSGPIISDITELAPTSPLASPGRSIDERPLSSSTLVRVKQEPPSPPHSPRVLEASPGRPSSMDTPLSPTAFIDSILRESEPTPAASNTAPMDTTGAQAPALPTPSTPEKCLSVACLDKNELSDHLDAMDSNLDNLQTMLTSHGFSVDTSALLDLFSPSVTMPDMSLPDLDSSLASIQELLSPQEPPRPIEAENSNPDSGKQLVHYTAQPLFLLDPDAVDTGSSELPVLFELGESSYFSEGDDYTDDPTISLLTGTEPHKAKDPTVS

[5] = target: T2, Short transient receptor potential channel 4; assay: calcium entry via TRPC4 opening agents – cell-based, HEK293 TRPC4/mu-opioid, Fluo-4 calcium, dose response (AID 434937); format: functional
[6] = microbe, parasite or virus in culture; format: functional; settings: Mycobacterium tuberculosis
[7] = viability of HCT116 lacking mutant beta-catenin – cell-based, human colon tumor, dose response (AID 1045); format: functional;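 further: HCT116 colon tumor cells with beta catenin knocked out; cells exposed to compound for 60 hours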
[8] = viability of PTEN-deleted HCT116 cells – cell-based, HCT116 PTEN knockout, dose response (AID 1047); format: functional;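 further: HCT116 colon tumor cells with PTEN knocked out; cells exposed to compound for 60 hours before readout; potency for loss of cell viability measured by luminescence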
[9] = target: T4, Corticotropin-releasing factor receptor 2/Corticotropin-releasing factor-binding protein (Homo sapiens, UniProt P24387+Q13324); assay: activators of CRF receptor 2 with binding protein – uHTS hits, confirmation (AID 602473); format: functional; settings: read-out: EC50_Mean
T4 sequence (Q13324 whole entry): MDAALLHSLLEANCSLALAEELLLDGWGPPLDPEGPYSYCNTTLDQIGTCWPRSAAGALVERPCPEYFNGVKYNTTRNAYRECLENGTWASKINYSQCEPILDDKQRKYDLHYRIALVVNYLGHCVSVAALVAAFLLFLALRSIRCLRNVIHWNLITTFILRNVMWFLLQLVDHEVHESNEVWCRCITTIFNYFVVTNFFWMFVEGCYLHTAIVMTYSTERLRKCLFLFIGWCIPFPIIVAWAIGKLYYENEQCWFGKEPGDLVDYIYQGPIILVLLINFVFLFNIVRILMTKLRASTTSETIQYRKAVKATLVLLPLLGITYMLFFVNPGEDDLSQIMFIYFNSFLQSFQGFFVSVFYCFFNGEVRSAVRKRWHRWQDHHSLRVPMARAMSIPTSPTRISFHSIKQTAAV
T4 sequence (P24387 whole entry): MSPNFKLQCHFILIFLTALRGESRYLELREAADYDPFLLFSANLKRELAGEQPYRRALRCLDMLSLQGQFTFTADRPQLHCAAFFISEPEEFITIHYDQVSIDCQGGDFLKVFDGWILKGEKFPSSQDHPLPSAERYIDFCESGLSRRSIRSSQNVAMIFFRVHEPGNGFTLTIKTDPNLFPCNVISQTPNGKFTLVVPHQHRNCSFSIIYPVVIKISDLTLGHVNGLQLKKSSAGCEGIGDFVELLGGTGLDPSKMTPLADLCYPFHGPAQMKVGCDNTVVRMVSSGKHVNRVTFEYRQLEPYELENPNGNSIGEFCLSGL

Nonstructural protein 1 = Nonstructural protein 1 (Influenza A virus, UniProt Q194T2); format: functional, Influenza A virus (A/California/07/2009(H1N1))
Nonstructural protein 1, sequence (Q194T2 whole entry): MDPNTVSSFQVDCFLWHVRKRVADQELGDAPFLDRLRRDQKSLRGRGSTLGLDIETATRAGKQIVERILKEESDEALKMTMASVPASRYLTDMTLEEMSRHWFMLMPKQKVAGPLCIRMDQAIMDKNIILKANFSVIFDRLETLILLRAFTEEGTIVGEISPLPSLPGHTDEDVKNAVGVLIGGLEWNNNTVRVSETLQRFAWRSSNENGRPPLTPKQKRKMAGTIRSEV

Compound: Cc1cccc(NC(=O)c2ccc3c(c2)C(=O)N(c2ccccc2C)C3=O)n1
- IC50 (Protein skinhead-1): > 100 µM (inactive)

Compound: COc1ccc(C(C(=O)NC2CCCCC2)N(Cc2cccs2)C(=O)Cc2c[nH]c3ccccc23)cc1 (configuration not stated)
- EC50 [1]: > 150 µM (inactive)
- EC50 [2]: > 38 µM (not active)
- IC50 (Protein skinhead-1): > 100 µM (inactive)

Compound: COc1ccc(C2C(C(C)=O)=C(O)C(=O)N2c2ccc(Br)cc2)cc1 (configuration not stated)
- EC50 [3]: 0.668 µM (active)

Compound: COc1ccccc1CNCC(c1ccccc1)c1ccccc1
- EC50 [4]: > 260 µM (inactive)
- EC50 [3]: 4.73 µM (active)

Compound: CCCCN(C)CCCNC(=O)CN1N=C(c2ccc(Cl)cc2)CCC1=O
- EC50 [5]: 0.596 µM (active)

Compound: c1ccc(-c2ccc(-c3nc(-c4cccnc4)no3)cc2)cc1
- IC50 (Protein skinhead-1): > 100 µM (inactive)

Compound: ClCc1nc2ccccc2c2ccccc12
- CC50 [6]: 18.6 µM (active)

Compound: C#CC[N+](C)(C)CCCCCCCC
- EC50 [7]: 16 µM (active)
- EC50 [8]: 13.6 µM (active)
- EC50 [9]: > 53 µM (inactive)

Compound: Cc1nnc2sc(SCC(=O)Nc3cccc(Cl)c3)nn2c1=O
- IC50 (Nonstructural protein 1): 10.4 µM (active)

Compound: Fc1ccc(-c2nnc3ccc(N4CCc5ccccc5C4)nn23)cc1
- EC50 [7]: 54 µM (active)
- EC50 [8]: 40.1 µM (active)
- EC50 [4]: > 260 µM (inactive)

Compound: CN(C)CCNC(=O)c1ccc(COc2ccc(Cl)cc2Cl)cc1
- EC50 [7]: 9 µM (active)
- EC50 [8]: 10.7 µM (active)

Compound: Cn1c(-c2ccccc2)cnc1NCc1ccc(F)cc1
- EC50 [3]: 1.88 µM (active)

Compound: O=C(C1CCCN(S(=O)(=O)c2ccc(F)cc2)C1)N(Cc1cccs1)C1CC1 (configuration not stated)
- EC50 [7]: 137 µM (active)
- EC50 [8]: 51.6 µM (active)
